The text below walks through data of patent US10463651B2, “3-(1H-pyrrolo[3,2-C]pyridin-2-YL)-1H-indazoles and therapeutic uses thereof” (Samumed, LLC, priority 2015, dated 2019).

What all share (type): cell-based
For test [1], the system named is Wnt activity (Sp5-Luc reporter, SW480 colon carcinoma cells). Description: Screening assay for Wnt activity (Sp5-Luc reporter gene assay in SW480 cells). The conditions noted are these: Homo sapiens; for inhibition at 10 µM: SW480, read-out: percent inhibition at 10 μM; for EC50: Sp5-Luc reporter, SW480 cells, incubated overnight. Summed up:
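SW480 colon carcinoma cells stably carrying Sp5 promoter (eight TCF/LEF sites)-driven firefly luciferase, plated at 4,000 cells/well in 1% FBS medium and incubated overnight at 37° C. Luminescence normalised to DMSO-only cells; EC50 from four-parameter variable-slope nonlinear regression.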
On the technique in general: A reporter such as luciferase makes a cellular process visible.

The test system of a further test is SW480 colon cancer cells. As to the kind of experiment: Cell viability assay (CellTiter-Blue). The conditions noted are these: Homo sapiens; for EC50: 96 h, SW480 cell viability, four days, CellTiter-Blue; for inhibition at 10 µM: SW480, 96 h, read-out: percent inhibition at 10 μM. The gist of the method:
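Fluorescence from resazurin reduced to resorufin by metabolically active cells was the read-out, taken after ~3 h with CellTiter-Blue.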
(Resazurin is reduced to fluorescent resorufin, in cell work by metabolically active cells.)

In test [2] the test system is primary human fibroblasts derived from IPF patients (LL29 cells) treated with TGF-β1. Description: Inhibition of the fibrotic process (αSMA staining) in TGF-β1-treated fibroblasts. The conditions noted are these: Fibroblast, 96 h; for EC50: % αSMA-positive LL29 cells, TGF-β1 20 ng/mL, 4 days; for inhibition at 10 µM: read-out: percent inhibition at 10 μM. The gist of the method: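 LL29 fibroblasts from IPF patients, 1,500 cells/well in F12 with 1% FBS, stimulated with TGF-β1; TGF-β1 plus DMSO wells as controls. Incubation 4 days, then SYTOX green 1 μM final for 30 min at room temperature. Fibrotic response read as αSMA staining.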

Test [3] relates to primary human mesenchymal stem cells (hMSCs). As to the kind of experiment: Induction of chondrogenesis in hMSCs (Rhodamine B / Nile Red nodule imaging). Particulars: for EC50: concentration required to induce 50% levels of chondrogenesis vs TGF-β3 positive control, read-out: Conc (nM) of 50% TGF-β3 activity; for Emax: maximum activity relative to TGF-β3 (10 ng/mL) positive control, read-out: Max. Activity as % TGF-β3 activity. The gist of the method: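 Primary hMSCs at passage 3-6 were treated with compound; nodule area per well was normalized to the mean of 3 DMSO wells, averaged over 2-3 replicates, and the concentration giving 50% chondrogenesis relative to TGF-β3 control, plus maximum activity and its dose, was derived.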

A further test concerns IL-6 (THP-1 cells). As to the kind of experiment: IL-6 inhibition in LPS-stimulated THP-1 cells (HTRF). The conditions noted are these: Homo sapiens; for EC50: IL6 by HTRF, THP-1 cells, 500 ng/mL LPS, 22 hours. Summed up: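 THP-1 cells, pre-cultured 24 h in 1% FBS medium, treated with compound 2 h at 37 °C, then stimulated with 500 ng/mL LPS for 22 h. Secreted IL-6 measured by HTRF as the 665/620 nm ratio. Values normalized to DMSO; EC50 from four-parameter fit, duplicates.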
For orientation: Time-resolved FRET reads energy transfer from a long-lived donor to a nearby acceptor.

By inhibition is commonly meant the share of the control response that was lost under treatment. Turning to `CC(C)CC(=O)Nc1cncc(-c2ccc3[nH]nc(-c4cc5c(-c6ccncc6)nccc5[nH]4)c3c2)c1` [Compound 114, 3-Methyl-N-(5-(3-(4-(pyridin-4-yl)-1H-pyrrolo[3,2-c]pyridin-2-yl)-1H-indazol-5-yl)pyridin-3-yl)butanamide], the results for the inhibition at 10 µM (in test [1]; in the test with SW480 colon cancer cells) were 39.7% and 4.1%, respectively. For the same compound, the EC50 in test [1] was more than 10000 nM; in the test with SW480 colon cancer cells, more than 10000 nM; in test [2], 2220 nM; in test [3], 30 nM; in the test on IL-6 (THP-1 cells) it was 1020 nM. For the same compound, the Emax in test [3] is 95%.

As to `CCNCc1cncc(-c2ccc3[nH]nc(-c4cc5c(N6CCCCC6)nccc5[nH]4)c3c2)c1` [Compound 174, N-((5-(3-(4-(Piperidin-1-yl)-1H-pyrrolo[3,2-c]pyridin-2-yl)-1H-indazol-5-yl)pyridin-3-yl)methyl)ethanamine], the EC50 in test [1] is 2960 nM; in the test with SW480 colon cancer cells, 963 nM; in test [2] it was 1460 nM; in test [3], 900 nM; in the test with IL-6 (THP-1 cells) it was 456 nM. Further, the Emax in test [3] was 301%.

Take `O=C(Cc1ccccc1)Nc1cncc(-c2ccc3[nH]nc(-c4cc5cnccc5[nH]4)c3c2)c1` [Compound 262, N-(5-(3-(1H-Pyrrolo[3,2-c]pyridin-2-yl)-1H-indazol-5-yl)pyridin-3-yl)-2-phenylacetamide]: the EC50 in test [1] came out at 1760 nM; with SW480 colon cancer cells, 3490 nM; in test [2] it was 757 nM; in test [3], 10 nM; with IL-6 (THP-1 cells), 1700 nM. Also, in test [3], the Emax worked out at 119%.

On to `O=C(Nc1cncc(-c2ccc3[nH]nc(-c4cc5c(-c6cccnc6)nccc5[nH]4)c3c2)c1)c1ccccc1` [Compound 95, N-(5-(3-(4-(Pyridin-3-yl)-1H-pyrrolo[3,2-c]pyridin-2-yl)-1H-indazol-5-yl)pyridin-3-yl)benzamide], for which the EC50 was 421 nM in test [1], more than 10000 nM in the test on SW480 colon cancer cells, more than 10000 nM in test [2] and 10 nM in the test on IL-6 (THP-1 cells). Further, the results for the inhibition at 10 µM (in the test with SW480 colon cancer cells; in test [2]) were 15.5% and 0%, respectively. In addition, in test [3], the Emax came out at 19%.

With `CCCCC(=O)Nc1cncc(-c2ccc3[nH]nc(-c4cc5c(N6CCN(C)CC6)nccc5[nH]4)c3c2)c1` [Compound 243, N-(5-(3-(4-(4-Methylpiperazin-1-yl)-1H-pyrrolo[3,2-c]pyridin-2-yl)-1H-indazol-5-yl)pyridin-3-yl)pentanamide], the EC50 in test [1] was determined as 3690 nM; in the test on SW480 colon cancer cells, 3480 nM; in test [2], 1830 nM; in the test on IL-6 (THP-1 cells) it was 3170 nM. Besides, the Emax in test [3] worked out at 49%.

Turning to `COc1cncc(-c2ccc3[nH]nc(-c4cc5c(-c6ccoc6)nccc5[nH]4)c3c2)c1` [Compound 692, 3-(4-(Furan-3-yl)-1H-pyrrolo[3,2-c]pyridin-2-yl)-5-(5-methoxypyridin-3-yl)-1H-indazole], the EC50 in test [1] was 309 nM; with SW480 colon cancer cells, 227 nM; in test [2], 741 nM; in the test with IL-6 (THP-1 cells), 4530 nM. In addition, in test [3], the Emax turned out to be 20%.

As for `c1cc2[nH]c(-c3n[nH]c4ccc(-c5cncnc5)cc34)cc2cn1` [Compound 279, 5-(Pyrimidin-5-yl)-3-(1H-pyrrolo[3,2-c]pyridin-2-yl)-1H-indazole], the EC50 came to 1480 nM in test [1], 2300 nM in the test with SW480 colon cancer cells, 686 nM in test [2] and 1840 nM in the test with IL-6 (THP-1 cells). Further, the Emax in test [3] turned out to be 22%.

For the compound `O=C(Nc1cncc(-c2ccc3[nH]nc(-c4cc5c(N6CCCCC6)nccc5[nH]4)c3c2)c1)C1CC1` [Compound 188, N-(5-(3-(4-(Piperidin-1-yl)-1H-pyrrolo[3,2-c]pyridin-2-yl)-1H-indazol-5-yl)pyridin-3-yl)cyclopropanecarboxamide], the EC50 is 1800 nM in test [1]; 972 nM with SW480 colon cancer cells; 9010 nM in test [2]; 900 nM in test [3]; 381 nM with IL-6 (THP-1 cells). In addition, the Emax in test [3] is 146%.

`CN(C)Cc1cncc(-c2ccc3[nH]nc(-c4cc5c(N6CCCCC6)nccc5[nH]4)c3c2)c1` [Compound 181, N,N-Dimethyl-1-(5-(3-(4-(piperidin-1-yl)-1H-pyrrolo[3,2-c]pyridin-2-yl)-1H-indazol-5-yl)pyridin-3-yl)methanamine]: the EC50 in test [1] was 4710 nM; with SW480 colon cancer cells, 1940 nM; in test [2], 3320 nM; in test [3], 10 nM; with IL-6 (THP-1 cells) it was more than 10000 nM. Besides, the Emax in test [3] came to 220%. In addition, in the test on IL-6 (THP-1 cells) (THP-1, read-out: percent inhibition at 10 M), the inhibition at 10 µM was found to be 22.5%.

As for `c1cc2[nH]c(-c3n[nH]c4ccc(-c5cncc(CN6CCCCC6)c5)cc34)cc2c(N2CCCCC2)n1` [Compound 183, 3-(4-(Piperidin-1-yl)-1H-pyrrolo[3,2-c]pyridin-2-yl)-5-(5-(piperidin-1-ylmethyl)pyridin-3-yl)-1H-indazole], the EC50 in test [1] is 4210 nM; in the test with SW480 colon cancer cells, 3810 nM; in test [2], 3280 nM; in the test with IL-6 (THP-1 cells), 9310 nM. Besides, the Emax in test [3] was 48%.

`O=C(Nc1cncc(-c2ccc3[nH]nc(-c4cc5c(-c6ccncc6)nccc5[nH]4)c3c2)c1)C1CCCC1` [Compound 134, N-(5-(3-(4-(Pyridin-4-yl)-1H-pyrrolo[3,2-c]pyridin-2-yl)-1H-indazol-5-yl)pyridin-3-yl)cyclopentanecarboxamide]: the figures for the inhibition at 10 µM (in test [1]; in the test with SW480 colon cancer cells) were 20.6% and 4.2%, respectively. The EC50 in test [1] is more than 10000 nM; with SW480 colon cancer cells, more than 10000 nM; in test [2] it was 2440 nM; in test [3], 30 nM; with IL-6 (THP-1 cells) it was 9740 nM. In test [3], the Emax stood at 114%.

As for `Nc1cncc(-c2ccc3[nH]nc(-c4cc5c(-c6ccccc6F)nccc5[nH]4)c3c2)c1` [Compound 59, 5-(3-(4-(2-Fluorophenyl)-1H-pyrrolo[3,2-c]pyridin-2-yl)-1H-indazol-5-yl)pyridin-3-amine], the EC50 was 60 nM in test [1]; more than 10000 nM with SW480 colon cancer cells; more than 10000 nM in test [2]; 2700 nM in test [3]; 9540 nM in the test with IL-6 (THP-1 cells). The inhibition at 10 µM with SW480 colon cancer cells turned out to be 43.5%; in test [2] it was 46.6%. For the same compound, the Emax in test [3] came out at 70%.

On to `O=C(Cc1ccccc1)Nc1cncc(-c2ccc3[nH]nc(-c4cc5c(N6CCCCC6)nccc5[nH]4)c3c2)c1` [Compound 178, 2-Phenyl-N-(5-(3-(4-(piperidin-1-yl)-1H-pyrrolo[3,2-c]pyridin-2-yl)-1H-indazol-5-yl)pyridin-3-yl)acetamide], for which the EC50 is 2350 nM in test [1]; 2870 nM in the test with SW480 colon cancer cells; 505 nM in test [2]; 900 nM in test [3]; 1520 nM in the test with IL-6 (THP-1 cells). In addition, the Emax in test [3] turned out to be 73%.

On to `CCCCC(=O)Nc1cncc(-c2ccc3[nH]nc(-c4cc5cnccc5[nH]4)c3c2)c1` [Compound 271, N-(5-(3-(1H-Pyrrolo[3,2-c]pyridin-2-yl)-1H-indazol-5-yl)pyridin-3-yl)pentanamide], for which the EC50 came to 275 nM in test [1]; 491 nM in the test on SW480 colon cancer cells; 192 nM in test [2]; 900 nM in test [3]; 149 nM with IL-6 (THP-1 cells). Besides, the Emax in test [3] was 67%.
